How the values were obtained:
Format in all cases: biochemical
JNK1 = JNK1 (Homo sapiens, UniProt P45983); test: JNK1 inhibition assay (spectrophotometric coupled-enzyme assay, analogous to JNK3); details: read-out: JNK1 (Ki rating)
Procedure: (§1) Compounds were assayed for the inhibition of JNK3 by a spectrophotometric coupled-enzyme assay. In this assay, a fixed concentration of activated JNK3 (10 nM) was incubated with various concentrations of a potential inhibitor dissolved in DMSO for 10 minutes at 30° C. in a buffer containing 0.1 M HEPES buffer, pH 7.5, containing 10 mM MgCl2, 2.5 mM phosphoenolpyruvate, 200 μM NADH, 30 μg/mL pyruvate kinase, 10 μg/mL lactate dehydrogenase, and 200 μM EGF receptor peptide. The EGF receptor peptide has the sequence […], and is a phosphoryl acceptor in the JNK3-catalyzed kinase reaction. The reaction was initiated by the addition of 10 μM ATP and the assay plate is inserted into the spectrophotometer's assay plate compartment that was maintained at 30° C. The decrease of absorbance at 340 nm was monitored as a function of time. The rate data as a function of inhibitor concentration was fitted to competitive inhibition kinetic model to determine the Ki.
(§2) The JNK1 and JNK2 assays were performed in an analogous manner.

activated JNK3 = target: T1, activated JNK3 (Homo sapiens, UniProt P53779); test: JNK3 inhibition, spectrophotometric coupled-enzyme assay; details: for Ki: activated JNK3 10 nM, 10 μM ATP, 30° C., read-out: JNK3 (Ki rating); for p38/JNK3: ratio of p38 to JNK3 activity as a measure of selectivity
T1 construct: One such construct encodes amino acid residues Ser40-Glu402 of JNK3α1 and is preceded by Met and Gly residues; Met-Gly (added initiation methionine and glycine, from the NcoI cloning site) (N); made in house; host or cells: E. coli BL21 (DE3)
T1 sequence (P53779 40-402): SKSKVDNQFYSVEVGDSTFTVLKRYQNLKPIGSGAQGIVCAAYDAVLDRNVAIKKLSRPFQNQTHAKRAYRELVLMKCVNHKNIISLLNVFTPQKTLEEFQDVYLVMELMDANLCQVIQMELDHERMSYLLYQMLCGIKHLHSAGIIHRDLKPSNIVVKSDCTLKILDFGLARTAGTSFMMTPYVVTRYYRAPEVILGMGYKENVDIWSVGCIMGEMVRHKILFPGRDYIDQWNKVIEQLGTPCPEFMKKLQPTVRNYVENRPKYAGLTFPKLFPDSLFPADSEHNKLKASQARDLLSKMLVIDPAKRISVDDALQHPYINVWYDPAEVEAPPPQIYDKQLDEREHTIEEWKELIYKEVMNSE
Text: A BLAST search of the EST database using the published JNK3α1 cDNA as a query identified an EST clone (#632588) that contained the entire coding sequence for human JNK3α1. Polymerase chain reactions (PCR) using pfu polymerase (Strategene) were used to introduce restriction sites into the CDNA for cloning into the pET-15B expression vector at the NcoI and BamHI sites. The protein was expressed in E. coli. Due to the poor solubility of the expressed full-length protein (Met 1-Gln 422), an N-terminally truncated protein starting at Ser residue at position 40 (Ser 40) was produced. This truncation corresponds to Ser 2 of JNK1 and JNK2 proteins, and is preceded by a methionine (initiation) and a glycine residue. The glycine residue was added in order to introduce an NcoI site for cloning into the expression vector. In addition, systematic C-terminal truncations were performed by PCR to identify a construct that give rise to diffraction-quality crystals. One such construct encodes amino acid residues Ser40-Glu402 of JNK3α1 and is preceded by Met and Gly residues.
Five mg of JNK3 was diluted to 0.5 mg/ml in 50 mM HEPES buffer, pH 7.5, containing 100 mM NaCl, 5 mM DTT, 20 mM MgCl2 and 1 mM ATP. GST-MKK7(DD) was added at a molar ratio of 1:2.5 GST-MKK7:JNK3. After incubation for 30 minutes at 25° C., the reaction mixture was concentrated 5-fold by ultrafiltration in a Centriprep-30 (Amicon, Beverly, Mass.), diluted to 10 ml and an additional 1 mM ATP added. This procedure was repeated three times to remove ADP and replenish ATP. The final addition of ATP was 5 mM and the mixture incubated overnight at 4° C.
The activated JNK3/GST-MKK7(DD) reaction mixture was exchanged into 50 mM HEPES buffer, pH 7.5, containing 5 mM DTT and 5% glycerol (w/v) by dialysis or ultrafiltration. The reaction mixture was adjusted to 1.1 M potassium phosphate, pH 7.5, and purified by hydrophobic interaction chromatography (at 25° C.) using a Rainin Hydropore column. […] Activated JNK3 (i.e. doubly phosphorylated JNK3) was stored at −70° C. at 0.25-1 mg/ml.
as §1

JNK2 = JNK2 (Homo sapiens, UniProt P45984); test: JNK2 inhibition assay (spectrophotometric coupled-enzyme assay, analogous to JNK3); details: read-out: JNK2 (Ki rating)
Chain of JNK2 (P45984 whole entry, species assumed): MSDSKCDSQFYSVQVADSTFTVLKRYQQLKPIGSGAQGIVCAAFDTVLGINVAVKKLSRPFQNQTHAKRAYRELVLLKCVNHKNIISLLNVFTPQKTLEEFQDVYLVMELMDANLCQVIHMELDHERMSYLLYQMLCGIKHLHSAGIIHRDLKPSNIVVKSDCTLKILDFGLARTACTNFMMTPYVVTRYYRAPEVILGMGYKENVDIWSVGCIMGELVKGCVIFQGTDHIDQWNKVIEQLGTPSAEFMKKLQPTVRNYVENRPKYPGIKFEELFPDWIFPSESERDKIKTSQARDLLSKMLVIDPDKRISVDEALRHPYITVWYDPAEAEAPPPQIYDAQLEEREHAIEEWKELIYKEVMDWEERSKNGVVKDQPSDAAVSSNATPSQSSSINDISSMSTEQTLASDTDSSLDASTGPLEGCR
Procedure: as §1, §2

activated p38 = activated p38 (Homo sapiens, UniProt Q16539); test: p38 inhibition assay; details: read-out: p38 (Ki rating)
Chain of activated p38 (Q16539 whole entry, the tested form may be a part, canonical isoform): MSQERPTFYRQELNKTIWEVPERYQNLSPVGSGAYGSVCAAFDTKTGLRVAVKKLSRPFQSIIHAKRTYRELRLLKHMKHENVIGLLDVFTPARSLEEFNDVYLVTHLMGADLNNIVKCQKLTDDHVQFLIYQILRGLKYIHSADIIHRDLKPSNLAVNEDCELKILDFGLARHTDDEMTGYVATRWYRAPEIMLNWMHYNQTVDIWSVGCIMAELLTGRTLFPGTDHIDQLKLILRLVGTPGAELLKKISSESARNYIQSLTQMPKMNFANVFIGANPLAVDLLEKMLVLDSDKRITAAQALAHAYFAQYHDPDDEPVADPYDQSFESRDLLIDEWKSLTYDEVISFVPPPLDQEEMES
Procedure: Two splice variants of human p38 kinase, CSBP1 and CSBP2, have been identified. […] The polymerase chain reaction product was cloned into the pET-15b vector (Novagen). The baculovirus transfer vector, pVL-(His)6-p38 was constructed by subcloning a XbaI-BamHI fragment of pET15b-(His)6-p38 into the complementary sites in plasmid pVL1392 (Pharmingen).
p38 was activated by combining 0.5 mg/ml p38 with 0.005 mg/ml DD-double mutant MKK6 in Buffer B+10 mM MgCl2, 2 mM ATP, 0.2 mM Na2VO4 for 30 minutes at 20° C. The activation mixture was then loaded onto a 1.0×10 cm MonoQ column (Pharmacia) and eluted with a linear 20 column volume gradient to 1.0 M NaCl in Buffer B. The activated p38 eluted after the ADP and ATP. The activated p38 peak was pooled and dialyzed against buffer B+0.2 mM Na2VO4 to remove the NaCl. The dialyzed protein was adjusted to 1.1M potassium phosphate by addition of a 4.0M stock solution and loaded onto a 1.0×10 cm HIC (Rainin Hydropore) column previously equilibrated in Buffer D (10% glycerol, 20 mM β-glycerophosphate, 2.0 mM DTT) +1.1MK2HPO4. The protein was eluted with a 20 column volume linear gradient to Buffer D+50 mM K2HPO4. The double phosphorylated p38 eluted as the main peak and was pooled for dialysis against Buffer B+0.2 mM Na2VO4 The activated p38 was stored at −70° C.
This assay is carried out in the presence of 10 mM MgCl2 and 100 mM HEPES buffer at pH 7.6. For a typical IC50 determination, a stock solution is prepared containing all of the above components and activated p38 (5 nM). The stock solution is aliquotted into vials. A fixed volume of DMSO or inhibitor in DMSO (final concentration of DMSO in reaction is 5%) is introduced to each vial, mixed and incubated for 15 minutes at room temperature. EGF receptor peptide, […], a phosphoryl acceptor in p38-catalyzed kinase reaction, is added to each vial to a final concentration of 200 μM. The kinase reaction is initiated with ATP (100 μM) and the vials are incubated at 30° C. After 30 minutes, the reactions are quenched with equal volume of 10% trifluoroacetic acid (TFA).
The phosphorylated peptide is quantified by HPLC analysis. Separation of phosphorylated peptide from the unphosphorylated peptide is achieved on a reverse phase column (Deltapak, 5 μm, C18 100D, part no. 011795) with a binary gradient of water and acteonitrile, each containing 0.1% TFA. IC50 (concentration of inhibitor yielding 50% inhibition) is determined by plotting the % activity remaining against inhibitor concentration.
This assay is carried out in the presence of 10 mM MgCl2, 25 mM β-glycerophosphate, 10% glycerol and 100 mM HEPES buffer at pH 7.6. For a typical Ki determination, the Km for ATP in the ATPase activity of activated p38 reaction is determined in the absence of inhibitor and in the presence of two concentrations of inhibitor. Ki is determined from the rate data as a function of inhibitor and ATP concentrations. A stock solution is prepared containing all of the above components and activated p38 (60 nM). The stock solution is aliquotted into vials. A fixed volume of DMSO or inhibitor in DMSO (final concentration of DMSO in reaction is 2.5%) is introduced to each vial, mixed and incubated for 15 minutes at room temperature. The reaction is initiated by adding various concentrations of ATP and then incubated at 30° C. After 30 minutes, the reactions are quenched with 50 μl of EDTA (0.1 M, final concentration), pH 8.0. The product of p38 ATPase activity, ADP, is quantified by HPLC analysis.
Separation of ADP from ATP is achieved on a reversed phase column (Supelcosil, LC-18, 3 μm, part no. 5-8985) using a binary solvent gradient of following composition: Solvent A—0.1 M phosphate buffer containing 8 mM tetrabutylammonium hydrogen sulfate (Sigma Chemical Co., catalogue no. T-7158), Solvent B—Solvent A with 30% methanol.

Chain of JNK1 (P45983 whole entry, species assumed): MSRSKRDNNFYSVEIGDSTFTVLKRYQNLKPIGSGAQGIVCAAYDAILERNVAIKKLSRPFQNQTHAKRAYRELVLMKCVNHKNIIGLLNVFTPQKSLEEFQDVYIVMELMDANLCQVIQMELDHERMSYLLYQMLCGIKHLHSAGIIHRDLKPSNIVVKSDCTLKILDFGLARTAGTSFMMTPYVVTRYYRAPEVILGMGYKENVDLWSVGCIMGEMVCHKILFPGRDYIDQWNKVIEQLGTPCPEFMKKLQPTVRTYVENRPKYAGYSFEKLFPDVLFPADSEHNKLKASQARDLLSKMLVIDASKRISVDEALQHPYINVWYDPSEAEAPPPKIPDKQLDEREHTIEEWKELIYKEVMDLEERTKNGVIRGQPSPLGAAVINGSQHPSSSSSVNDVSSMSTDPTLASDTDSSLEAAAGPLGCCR

| Compound | Ki (JNK1) [µM] | Ki (activated JNK3) [µM] | p38/JNK3 (activated JNK3) | Ki (JNK2) [µM] | Ki (activated p38) [µM] |
| --- | --- | --- | --- | --- | --- |
| c1ccc(Cn2cc(-c3ccnc(NC4CCCCC4)n3)cn2)cc1 [II-65] | < 2 | < 2 | >10 | < 2 | > 10 |
| c1ccc(-n2cc(-c3ccnc(NC4CCCCC4)n3)cn2)cc1 [II-67] | < 2 | < 2 | >10 | < 2 | > 10 |
| COc1ccc(-n2cc(-c3ccnc(NC4CCCCC4)n3)cn2)cc1 [II-70] | 2 to 10 | < 2 | ≧10 | 2 to 10 | > 10 |
| Clc1ccc(Cl)c(-n2cc(-c3ccnc(NC4CCCCC4)n3)cn2)c1 [II-71] | < 2 | < 2 | >10 | < 2 | > 10 |
| Fc1ccc(-n2cc(-c3ccnc(NC4CCCCC4)n3)cn2)c(F)c1 [II-72, Cyclohexyl-{4-[l-(2,4-difluoro-phenyl)-1H-pyrazol-4-yl]-pyrimidin-2-yl}-amine] | < 2 | < 2 | >10 | < 2 | > 10 |
| Cc1c(-c2ccnc(Nc3ccc(F)cc3)n2)cnn1-c1ccccc1 [II-100] | < 2 | < 2 | >10 | < 2 | > 10 |
| Cc1c(-c2ccnc(Nc3ccc(Cl)cc3)n2)cnn1-c1ccccc1 [II-101] | < 2 | < 2 | >10 | < 2 | > 10 |
| Cc1c(-c2ccnc(Nc3ccc([N+](=O)[O-])cc3)n2)cnn1-c1ccccc1 [II-102] | < 2 | < 2 | >10 | < 2 | > 10 |

Source: US20020111353A1, “Inhibitors of c-Jun N-terminal kinases (JNK) and other protein kinases” (priority 2000, published 2002)
